Experimental data published in US8901115B2, “Cyclic P1 linkers as factor XIa inhibitors” (Bristol-Myers Squibb Company, priority 2011, dated 2014).
Structures can show the parent of a compound that is named as a salt.

System: not given
Test: not given
Conditions: from C=CCCC(=O)Nc1cc(NC(=O)OC)ccc1-c1cn(COCC[Si](C)(C)C)c([C@H](CC=C)NC(=O)OC(C)(C)C)n1; rcm bond; 13-membered ring; 1.5 h

Compound `COC(=O)Nc1ccc2c(c1)NC(=O)CC/C=C/C[C@H](NC(=O)OC(C)(C)C)c1nc-2cn1COCC[Si](C)(C)C` has a ring closure, yield after HPLC of 42%.

Target: purified human Factor XIa (Homo sapiens (Human), UniProt P03951)
Test: Factor XIa enzyme inhibition assay (chromogenic substrate S-2366)
Type: biochemical
Conditions: substrate S-2366, 50 mM HEPES pH 7.4
Method: The effectiveness of compounds of the present invention as inhibitors of the coagulation Factors XIa, VIIa, IXa, Xa, XIIa, plasma kallikrein or thrombin, can be determined using a relevant purified serine protease, respectively, and an appropriate synthetic substrate. The rate of hydrolysis of the chromogenic or fluorogenic substrate by the relevant serine protease was measured both in the absence and presence of compounds of the present invention. Assays were conducted at room temperature or at 37° C. […] A decrease in the rate of absorbance or fluorescence change in the presence of inhibitor is indicative of enzyme inhibition. Such methods are known to one skilled in the art. The results of this assay are expressed as the inhibitory constant, Ki.
Values of Ki were determined by allowing the protease to react with the substrate in the presence of the inhibitor. Reactions were allowed to go for periods of 20-180 minutes (depending on the protease) and the velocities (rate of absorbance or fluorescence change versus time) were measured. The following relationships were used to calculate Ki values: (vo−vs)/vs=I/(Ki(1+S/Km)) for a competitive inhibitor with one binding site; or vs/vo=A+((B−A)/(1+((IC50/(I))^n))); and Ki=IC50/(1+S/Km) for a competitive inhibitor where: […]

Sequence of purified human Factor XIa (P03951 388-625): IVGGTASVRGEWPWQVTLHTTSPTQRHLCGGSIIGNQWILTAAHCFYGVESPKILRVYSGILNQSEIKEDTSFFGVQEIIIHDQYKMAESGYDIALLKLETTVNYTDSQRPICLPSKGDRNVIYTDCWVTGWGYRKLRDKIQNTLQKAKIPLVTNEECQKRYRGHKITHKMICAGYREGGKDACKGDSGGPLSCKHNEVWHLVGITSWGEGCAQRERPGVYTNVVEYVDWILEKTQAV
Sequence of purified human Factor XIa (P03951 19-387 partner): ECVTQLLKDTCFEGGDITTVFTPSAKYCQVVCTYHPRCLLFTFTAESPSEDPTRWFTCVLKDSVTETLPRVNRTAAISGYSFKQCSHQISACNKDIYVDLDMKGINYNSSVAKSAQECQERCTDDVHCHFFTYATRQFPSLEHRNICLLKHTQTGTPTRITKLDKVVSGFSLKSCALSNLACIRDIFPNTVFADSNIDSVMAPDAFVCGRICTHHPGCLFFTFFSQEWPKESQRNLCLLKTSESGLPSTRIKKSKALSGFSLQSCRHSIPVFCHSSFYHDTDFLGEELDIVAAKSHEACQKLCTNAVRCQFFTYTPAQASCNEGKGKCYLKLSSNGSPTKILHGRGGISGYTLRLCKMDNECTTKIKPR

Going from `COC(=O)Nc1ccc2c(c1)NC(=O)[C@H](C)CCC[C@H](N1CCC(c3c(Cl)ccc(Cl)c3F)NC1=O)c1nc-2c[nH]1` (stereo partly drawn) [Example 18, Methyl N-[(10R,14S)-14-[4-(3,6-dichloro-2-fluorophenyl)-2-oxo-1,3-diazinan-1-yl]-10-methyl-9-oxo-8,16,18-triazatricyclo[13.2.1.0^2,7]octadeca-1(17),2,4,6,15(18)-pentaen-5-yl]carbamate] to `COC(=O)Nc1ccc2c(c1)NC(=O)[C@H](C)CCC[C@H](N1CC[C@@H](c3c(F)ccc(Cl)c3F)NC1=O)c1nc-2c[nH]1` [Example 70], the Ki falls from 6.83 nM to < 5 nM.

First: COC(=O)Nc1ccc2c(c1)NC(=O)[C@H](C)CCC[C@H](N1CCC(c3c(C(F)(F)F)ccc(Cl)c3F)OC1=O)c1cc-2ccn1 (single isomer, unassigned) [Example 133]
Second: COC(=O)Nc1ccc2c(c1)NC(=O)[C@H](C)CCC[C@H](N1CC[C@@H](c3c(F)ccc(Cl)c3F)OC1=O)c1cc-2ccn1 [Example 100]
The Ki of the first is higher: 69.3 nM for the first, < 5 nM for the second. The second binds more tightly here.

`COC(=O)Nc1ccc2c(c1)N[C@@H](C(=O)OC)CCCC[C@H](N1CCC(c3cccc(Cl)c3)OC1=O)c1nc-2c(C#N)[nH]1` (single isomer, unassigned) [Example 79] and `COC(=O)Nc1ccc2c(c1)N[C@@H](C(=O)OC)CCCC[C@H](N1CCC(c3cccc(Cl)c3)OC1=O)c1nc-2c[nH]1` (stereo partly drawn) [Example 5, Methyl (9R,14S)-14-(6-(3-chlorophenyl)-2-oxo-1,3-oxazinan-3-yl)-5-((methoxycarbonyl)amino)-8,16,18-triazatricyclo[13.2.1.0^2,7]octadeca-1(17),2,4,6,15(18)-pentaene-9-carboxylate] are within 1.5-fold of each other in Ki: 13.3 nM for the first, 12.2 nM for the second.

Going from `COC(=O)Nc1ccc2c(c1)NC(=O)CCCC[C@H](N1CCC(c3cccc(Cl)c3)CC1=O)c1nc-2c[nH]1` (single isomer, unassigned) [Example 147] to `COC(=O)Nc1ccc2c(c1)NC(=O)CCCC[C@H](N1CCC(c3cccc(Cl)c3)OC1=O)c1nc-2c[nH]1` (stereo partly drawn) [Example 4, Methyl ((14S)-14-(6-(3-chlorophenyl)-2-oxo-1,3-oxazinan-3-yl)-9-oxo-8,16,18-triazatricyclo[13.2.1.0^2,7]octadeca-1(17),2,4,6,15(18)-pentaen-5-yl)carbamate], the Ki rises from 9.48 nM to 3400 nM (360-fold). The first binds more tightly here.

Compared with `COC(=O)Nc1ccc2c(c1)NC(=O)[C@H](C)CCCC(N1CC(=O)N(c3c(C(F)(F)F)ccc(Cl)c3F)CC1=O)c1cc-2ccn1` (single isomer, unassigned) [Example 37, TFA salt], `COC(=O)Nc1ccc2c(c1)NC(=O)[C@H](C)CCC[C@H](N1CCN(c3cccc(Cl)c3F)CC1=O)c1cc-2ccn1` [Example 20, Methyl N-[(10R,14S)-14-[4-(3-chloro-2-fluorophenyl)-2-oxopiperazin-1-yl]-10-methyl-9-oxo-8,16-diazatricyclo[13.3.1.0^2,7]nonadeca-1(19),2(7),3,5,15,17-hexaen-5-yl]carbamate] is higher in Ki: < 5 nM for the first, 7.46 nM for the second.

Going from `COC(=O)Nc1ccc2c(c1)NC(=O)[C@H](C)CCC[C@H](N1CC[C@H](c3nccc(Cl)c3F)N(C)C1=O)c1nc-2c[nH]1` [Example 72] to `COC(=O)Nc1ccc2c(c1)NC(=O)[C@H](C)CCC[C@H](N1CC[C@@H](c3nccc(Cl)c3F)N(C)C1=O)c1nc-2c[nH]1` [Example 71], the Ki rises from 28.8 nM to 330 nM (11-fold).

Compared with `COC(=O)Nc1ccc2c(c1)NC(=O)CC/C=C/C[C@H](N1CC[C@H](c3cc(Cl)ccc3OC(F)F)OC1=O)c1nc-2c[nH]1` [Example 77], `COC(=O)Nc1ccc2c(c1)NC(=O)CC/C=C/C[C@H](N1CCC(c3cc(Cl)ccn3)NC1=O)c1nc-2c[nH]1` (single isomer, unassigned) [Example 40] is 3.3-fold higher in Ki: 7.46 nM for the first, 24.4 nM for the second. The first binds more tightly here.

Compared with `COC(=O)Nc1ccc2c(c1)NC(=O)CC/C=C/C[C@H](N1CCC(C)(c3c(F)ccc(Cl)c3F)OC1=O)c1nc-2c(Cl)[nH]1` (single isomer, unassigned) [Example 99], `COC(=O)Nc1ccc2c(c1)NC(=O)[C@@H](C)CCC[C@H](N1CC[C@@H](c3c(F)ccc(Cl)c3F)OC1=O)c1ccnc-2c1` [Example 119] is 200-fold lower in Ki: 1930 nM for the first, 9.6 nM for the second.

`COC(=O)Nc1ccc2c(c1)NC(=O)C(C)CCC[C@H](N1CC[C@H](c3c(F)ccc(Cl)c3F)OC1=O)c1cc-2cnn1` (stereo partly drawn) [Example 13, Methyl N-[(14S)-14-[(6R)-6-(3-chloro-2,6-difluorophenyl)-2-oxo-1,3-oxazinan-3-yl]-10-methyl-9-oxo-8,16,17-triazatricyclo[13.3.1.0^2,7]nonadeca-1(19),2(7),3,5,15,17-hexaen-5-yl]carbamate] and `C[C@@H]1CCC[C@H](N2CC[C@H](c3c(F)ccc(Cl)c3F)OC2=O)c2cc(ccn2)-c2cc(C(=O)O)ccc2NC1=O` [Example 26, (10R,14S)-14-[(6R)-6-(3-chloro-2,6-difluorophenyl)-2-oxo-1,3-oxazinan-3-yl]-10-methyl-9-oxo-8,16-diazatricyclo[13.3.1.0^2,7]nonadeca-1(19),2,4,6,15,17-hexaene-4-carboxylic acid, TFA salt] cannot be ordered by Ki: < 5 nM for the first, < 5 nM for the second.

`COC(=O)Nc1ccc2c(c1)NC(=O)[C@H](C)CCC[C@H](N1CCC(c3cccc(Cl)c3)CC1=O)c1cc-2ccn1` (single isomer, unassigned) [Example 152] and `COC(=O)Nc1ccc2c(c1)NC(=O)[C@H](C)CCC[C@H](N1CCC(c3nccc(Cl)c3F)NC1=O)c1nc-2c[nH]1` (single isomer, unassigned) [Example 58] cannot be ordered by Ki: < 5 nM for the first, < 5 nM for the second.

`COC(=O)Nc1ccc2c(c1)N[C@@H](C(=O)OC)CCCC[C@H](N1CCC(c3cc(Cl)ccc3OC(F)F)OC1=O)c1nc-2c(C#N)[nH]1` (single isomer, unassigned) [Example 7] gave a Ki of 41.8 nM.

Same assay, conditions: substrate S-2366, 50 mM HEPES pH 7.4, TFA salt

With `COC(=O)Nc1ccc2c(c1)NC(=O)CC/C=C/C[C@H](N1CCC(C)(c3c(F)ccc(Cl)c3F)OC1=O)c1nc-2c(Cl)[nH]1` (stereo partly drawn) [Example 32, Methyl N-[(12E,15S)-18-chloro-15-[6-(3-chloro-2,6-difluorophenyl)-6-methyl-2-oxo-1,3-oxazinan-3-yl]-9-oxo-8,17,19-triazatricyclo[14.2.1.0^2,7]nonadeca-1(18),2,4,6,12,16(19)-hexaen-5-yl]carbamate, TFA salt] the Ki was 2460 nM.

System: not given
Test: not given
Conditions: from C=CC[C@H](NC(=O)OC(C)(C)C)c1cc(-c2ccc(NC(=O)OC)cc2NC(=O)C(C)C=C)ccn1; rcm bond; 12-membered ring; Grubbs II (0.1 eq)/pTsOH; DCM; 4.0 mM; 40.0 °C

In the case of `COC(=O)Nc1ccc2c(c1)NC(=O)C(C)C=CC[C@H](NC(=O)OC(C)(C)C)c1cc-2ccn1` (single isomer, unassigned; diastereomer a), the ring closure, isolated yield is reported as 25%.

Same assay, conditions: from C=CC[C@H](NC(=O)OC(C)(C)C)c1cc(-c2ccc(NC(=O)OC)cc2NC(=O)C(C)C=C)cnc1F; rcm bond; 12-membered ring; Grubbs II (0.4 eq), microwave; DCE; 17.3 mM; 120.0 °C

In the case of `COC(=O)Nc1ccc2c(c1)NC(=O)C(C)/C=C/C[C@H](NC(=O)OC(C)(C)C)c1cc-2cnc1F` (stereo partly shown), the ring closure, isolated yield is reported as 68%.

Same assay, conditions: from C=CC[C@H](NC(=O)OC(C)(C)C)c1nc(-c2ccc(NC(=O)OC)cc2N(C(=O)C(F)(F)F)[C@H](CC=C)C(=O)OC)cn1COCC[Si](C)(C)C; rcm bond; 12-membered ring; Grubbs II (0.03 eq); DCE; 37.7 mM; 85.0 °C; 16.0 h

`COC(=O)Nc1ccc2c(c1)N(C(=O)C(F)(F)F)[C@@H](C(=O)OC)CC=CC[C@H](NC(=O)OC(C)(C)C)c1nc-2cn1COCC[Si](C)(C)C` showed a ring closure, isolated yield of 29%.

Same assay, conditions: from C=CC[C@H](NC(=O)OC(C)(C)C)c1nc(-c2ccc(NC(=O)OC)cc2NC(=O)[C@H](C)C=C)cn1COCC[Si](C)(C)C; rcm bond; 12-membered ring; Grubbs II (0.4 eq)/pTsOH; DCM; 9.7 mM; 40.0 °C

In the case of `COC(=O)Nc1ccc2c(c1)NC(=O)[C@H](C)/C=C/C[C@H](NC(=O)OC(C)(C)C)c1nc-2cn1COCC[Si](C)(C)C`, the ring closure, isolated yield is reported as 41%.

Same assay, conditions: from C=CC[C@H](NC(=O)OC(C)(C)C)c1nc(-c2ccc(NC(=O)OC)cc2N[C@H](CC=C)C(=O)OC)cn1COCC[Si](C)(C)C; rcm bond; 12-membered ring; Grubbs II (0.4 eq), microwave; DCE; 40.0 mM; 120.0 °C

`COC(=O)Nc1ccc2c(c1)N[C@@H](C(=O)OC)C/C=C/C[C@H](NC(=O)OC(C)(C)C)c1nc-2cn1COCC[Si](C)(C)C` showed a ring closure, isolated yield of 23%.
